The record followed here is ChEMBL document CHEMBL3603829, “Metronidazole hydrazone conjugates: Design, synthesis, antiamoebic and molecular docking studies” (Bioorg Med Chem Lett, 2015).

By IC50 is commonly meant the point on the concentration scale where inhibition reaches its midpoint. Read a high IC50 as lower potency.

One data set concerns Entamoeba histolytica. In words: Antiamoebic activity against trophozoite stage of Entamoeba histolytica HM-1:IMSS after 72 hrs by microdilution method. The data set is classed as functional, organism-based. Background: Dilution methods test growth across graded concentrations, often in twofold steps.
The nature of data set [1]: Cytotoxicity against human HeLa cells assessed as cell viability at 208 nM after 24 hrs by MTT assay relative to control. The data set is classed as cell-based. The conditions noted are these: read-out: Activity. A general note: Formazan colour is commonly taken as a measure of viable cells.
A short description of data set [2]: Cytotoxicity against human HeLa cells assessed as cell viability at 208 nM after 48 hrs by MTT assay relative to control. The data set is classed as cell-based. Conditions: read-out: Activity.
Data set [3] in a line: Cytotoxicity against human HeLa cells assessed as cell viability at 208 nM after 72 hrs by MTT assay relative to control. Format: cell-based. The conditions noted are these: read-out: Activity.
Data set [4] is described as follows: Cytotoxicity against human HeLa cells assessed as cell viability at 387 nM after 24 hrs by MTT assay relative to control. The data set is classed as cell-based. The conditions noted are these: read-out: Activity.
A short description of data set [5]: Cytotoxicity against human HeLa cells assessed as cell viability at 387 nM after 48 hrs by MTT assay relative to control. The data set is classed as cell-based. The conditions noted are these: read-out: Activity.
The nature of data set [6]: Cytotoxicity against human HeLa cells assessed as cell viability at 387 nM after 72 hrs by MTT assay relative to control. The data set is classed as cell-based. Conditions: read-out: Activity.
Data set [7] in a line: Cytotoxicity against human HeLa cells assessed as cell viability at 360 nM after 24 hrs by MTT assay relative to control. The data set is classed as cell-based. Conditions: read-out: Activity.
Data set [8] in a line: Cytotoxicity against human HeLa cells assessed as cell viability at 360 nM after 48 hrs by MTT assay relative to control. Format: cell-based. Conditions: read-out: Activity.
The nature of data set [9]: Cytotoxicity against human HeLa cells assessed as cell viability at 360 nM after 72 hrs by MTT assay relative to control. Format: cell-based. The conditions noted are these: read-out: Activity.
Data set [10] is described as follows: Cytotoxicity against human HeLa cells assessed as cell viability at 490 nM after 24 hrs by MTT assay relative to control. The data set is classed as cell-based. The conditions noted are these: read-out: Activity.
Data set [11] is described as follows: Cytotoxicity against human HeLa cells assessed as cell viability at 490 nM after 48 hrs by MTT assay relative to control. Conditions: read-out: Activity. Format: cell-based.
A short description of data set [12]: Cytotoxicity against human HeLa cells assessed as cell viability at 490 nM after 72 hrs by MTT assay relative to control. Format: cell-based. Conditions: read-out: Activity.
Data set [13] in a line: Cytotoxicity against human HeLa cells assessed as cell viability at 435 nM after 24 hrs by MTT assay relative to control. The data set is classed as cell-based. The conditions noted are these: read-out: Activity.
Data set [14] is described as follows: Cytotoxicity against human HeLa cells assessed as cell viability at 435 nM after 48 hrs by MTT assay relative to control. Format: cell-based. Conditions: read-out: Activity.
The nature of data set [15]: Cytotoxicity against human HeLa cells assessed as cell viability at 435 nM after 72 hrs by MTT assay relative to control. The data set is classed as cell-based. Conditions: read-out: Activity.
Data set [16] can be described thus: Cytotoxicity against human HeLa cells assessed as cell viability at 370 nM after 24 hrs by MTT assay relative to control. The data set is classed as cell-based. Conditions: read-out: Activity.
Data set [17] in a line: Cytotoxicity against human HeLa cells assessed as cell viability at 370 nM after 48 hrs by MTT assay relative to control. The data set is classed as cell-based. Conditions: read-out: Activity.
A short description of data set [18]: Cytotoxicity against human HeLa cells assessed as cell viability at 370 nM after 72 hrs by MTT assay relative to control. The data set is classed as cell-based. The conditions noted are these: read-out: Activity.

In turn, `Cc1ncc([N+](=O)[O-])n1CCOc1ccc(C=O)cc1` showed an IC50 in the data set on Entamoeba histolytica of 11500 nM.

The molecule `Cc1ncc([N+](=O)[O-])n1CCOc1ccc(/C=N/NC(=O)c2ccccc2)cc1` came in with an IC50 in the data set on Entamoeba histolytica of 2020 nM.

`Cc1ncc([N+](=O)[O-])n1CCOc1ccc(/C=N/NC(=O)c2ccc(Cl)cc2)cc1` returned an IC50 in the data set with Entamoeba histolytica of 200 nM. Further, in [1], the viability at 24 h, 0.208 µM turned out to be 85.9%. In [2], the viability at 48 h, 0.208 µM worked out at 93.7%. In addition, the viability at 72 h, 0.208 µM in [3] was found to be 65.9%.

Molecule `Cc1ncc([N+](=O)[O-])n1CCOc1ccc(/C=N/NC(=O)c2ccc(O)cc2)cc1` came in with an IC50 in the data set with Entamoeba histolytica of 380 nM. The viability at 24 h, 0.387 µM in data set [4] is 81.9%. The viability at 48 h, 0.387 µM in data set [5] came out at 87.1%. For the same molecule, in [6], the viability at 72 h, 0.387 µM is 54.4%.

The molecule `Cc1ncc([N+](=O)[O-])n1CCOc1ccc(/C=N/NC(=O)c2ccc([N+](=O)[O-])cc2)cc1` had an IC50 with Entamoeba histolytica of 360 nM. Besides, the viability at 24 h, 0.36 µM in data set [7] came to 78.5%. In addition, the viability at 48 h, 0.36 µM in data set [8] is 88.9%. In data set [9], the viability at 72 h, 0.36 µM turned out to be 68.3%.

`COc1ccc(C(=O)N/N=C/c2ccc(OCCn3c([N+](=O)[O-])cnc3C)cc2)cc1` displayed an IC50 in the data set on Entamoeba histolytica of 7120 nM.

`Cc1ccc(C(=O)N/N=C/c2ccc(OCCn3c([N+](=O)[O-])cnc3C)cc2)cc1` gave an IC50 in the data set with Entamoeba histolytica of 490 nM. For the same molecule, the viability at 24 h, 0.49 µM in [10] worked out at 66.2%. Besides, the viability at 48 h, 0.49 µM in data set [11] is 83.8%. Further, the viability at 72 h, 0.49 µM in data set [12] was 50.8%.

The molecule `Cc1ncc([N+](=O)[O-])n1CCOc1ccc(/C=N/NC(=O)c2ccc(N)cc2)cc1` gave an IC50 in the data set with Entamoeba histolytica of 430 nM. In addition, the viability at 24 h, 0.435 µM in data set [13] turned out to be 79.8%. The viability at 48 h, 0.435 µM in [14] is 80.1%. Besides, in [15], the viability at 72 h, 0.435 µM was determined as 60.3%.

As to `Cc1ncc([N+](=O)[O-])n1CCOc1ccc(/C=N/NC(=O)c2ccc(C(C)(C)C)cc2)cc1`, the IC50 with Entamoeba histolytica came to 1980 nM.

Molecule `Cc1cc(C)cc(C(=O)N/N=C/c2ccc(OCCn3c([N+](=O)[O-])cnc3C)cc2)c1` showed an IC50 with Entamoeba histolytica of 5960 nM.

Turning to `COc1cc(OC)cc(C(=O)N/N=C/c2ccc(OCCn3c([N+](=O)[O-])cnc3C)cc2)c1`, half-maximal inhibition with Entamoeba histolytica (IC50) was put at 4390 nM.

As for `Cc1ncc([N+](=O)[O-])n1CCOc1ccc(/C=N/NC(=O)c2cc(O)cc(O)c2)cc1`, the IC50 with Entamoeba histolytica worked out at 370 nM. In addition, in data set [16], the viability at 24 h, 0.37 µM turned out to be 93.4%. Moreover, the viability at 48 h, 0.37 µM in [17] amounted to 92.1%. Also, the viability at 72 h, 0.37 µM in [18] was found to be 59.8%.

In the case of `COc1cc(C(=O)N/N=C/c2ccc(OCCn3c([N+](=O)[O-])cnc3C)cc2)cc(OC)c1OC`, the IC50 in the data set with Entamoeba histolytica is 2600 nM.
